Test results reported in the NIST ThermoML archive (doi:10.1021/je700645p).
Numbers after ± are expanded uncertainties.

Legend:
[1] = refractive index (Na D-line) (dimensionless); settings: 298.15 K; 81.5 kPa; Liquid; Standard Abbe refractometry
[2] = 81.5 kPa, Liquid
[3] = xn = mol fraction of the nth substance listed; settings: 81.5 kPa, Liquid

Question: Which results are given for `CC#N` [acetonitrile]?
Answer: refractive index [1]: 1.3417 ± 0.0008; mass density ([2]; 293.15 K): 781.97 ± 0.24 kg/m3; mass density ([2]; 303.15 K): 771.15 ± 0.25 kg/m3; mass density ([2]; 313.15 K): 760.2 ± 0.3 kg/m3; mass density ([2]; 323.15 K): 749.12 ± 0.26 kg/m3; mass density ([2]; 333.15 K): 737.87 ± 0.27 kg/m3

Question: With `CC#N` [acetonitrile] + C[S+](C)[O-] as the compound, how does the mass density ([3]; 293.15 K, x1 = 1) read?
Answer: The mass density was 781.97 ± 0.47 kg/m3.

Question: And the mass density ([3]; 303.15 K, x1 = 1)?
Answer: The mass density was 771.15 ± 0.49 kg/m3.

Question: And the mass density ([3]; 313.15 K, x1 = 1)?
Answer: Its mass density is 760.2 ± 0.5 kg/m3.

Question: What about the mass density ([3]; 323.15 K, x1 = 1) of the same compound?
Answer: The mass density was 749.12 ± 0.52 kg/m3.

Question: What about the mass density ([3]; 333.15 K, x1 = 1) of the same compound?
Answer: Its mass density is 737.87 ± 0.54 kg/m3.

Question: With `CC#N` [acetonitrile] + O as the compound, how does the mass density ([3]; 293.15 K, x2 = 0) read?
Answer: The mass density was 781.97 ± 0.24 kg/m3.

Question: And the mass density ([3]; 293.15 K, x2 = 0.0417)?
Answer: The mass density was 785.6 ± 0.2 kg/m3.

Question: What about the mass density ([3]; 293.15 K, x2 = 0.0833) of the same compound?
Answer: The mass density was 789.62 ± 0.23 kg/m3.

Question: And the mass density ([3]; 293.15 K, x2 = 0.1568)?
Answer: Its mass density is 797.67 ± 0.23 kg/m3.

Question: What about the mass density ([3]; 293.15 K, x2 = 0.2095) of the same compound?
Answer: The mass density was 804.01 ± 0.22 kg/m3.

Question: And the mass density ([3]; 293.15 K, x2 = 0.3247)?
Answer: The mass density was 819.96 ± 0.21 kg/m3.

Question: What about the mass density ([3]; 293.15 K, x2 = 0.4127) of the same compound?
Answer: The mass density was 834.27 ± 0.2 kg/m3.

Question: And the mass density ([3]; 293.15 K, x2 = 0.496)?
Answer: The mass density was 849.71 ± 0.18 kg/m3.

Question: What about the mass density ([3]; 293.15 K, x2 = 0.5704) of the same compound?
Answer: Its mass density is 864.78 ± 0.17 kg/m3.

Question: What about the mass density ([3]; 293.15 K, x2 = 0.6361) of the same compound?
Answer: Its mass density is 880.12 ± 0.16 kg/m3.

Question: And the mass density ([3]; 293.15 K, x2 = 0.7201)?
Answer: The mass density was 902.94 ± 0.14 kg/m3.

Question: What about the mass density ([3]; 293.15 K, x2 = 0.7961) of the same compound?
Answer: The mass density was 926.99 ± 0.12 kg/m3.

Question: What about the mass density ([3]; 293.15 K, x2 = 0.8788) of the same compound?
Answer: Its mass density is 956.73 ± 0.1 kg/m3.

Question: And the mass density ([3]; 293.15 K, x2 = 0.9573)?
Answer: Its mass density is 984.72 ± 0.08 kg/m3.

Question: What about the mass density ([3]; 303.15 K, x2 = 0) of the same compound?
Answer: The mass density was 771.15 ± 0.25 kg/m3.

Question: What about the mass density ([3]; 303.15 K, x2 = 0.0417) of the same compound?
Answer: Its mass density is 774.79 ± 0.24 kg/m3.

Question: And the mass density ([3]; 303.15 K, x2 = 0.0833)?
Answer: The mass density was 778.83 ± 0.24 kg/m3.

Question: What about the mass density ([3]; 303.15 K, x2 = 0.1568) of the same compound?
Answer: Its mass density is 786.95 ± 0.23 kg/m3.

Question: What about the mass density ([3]; 303.15 K, x2 = 0.2095) of the same compound?
Answer: Its mass density is 793.33 ± 0.23 kg/m3.

Question: What about the mass density ([3]; 303.15 K, x2 = 0.3247) of the same compound?
Answer: The mass density was 809.63 ± 0.22 kg/m3.

Question: And the mass density ([3]; 303.15 K, x2 = 0.4127)?
Answer: The mass density was 824.27 ± 0.2 kg/m3.

Question: What about the mass density ([3]; 303.15 K, x2 = 0.496) of the same compound?
Answer: Its mass density is 840.11 ± 0.19 kg/m3.

Question: And the mass density ([3]; 303.15 K, x2 = 0.5704)?
Answer: The mass density was 855.57 ± 0.18 kg/m3.

Question: And the mass density ([3]; 303.15 K, x2 = 0.6361)?
Answer: The mass density was 871.32 ± 0.17 kg/m3.

Question: What about the mass density ([3]; 303.15 K, x2 = 0.7201) of the same compound?
Answer: Its mass density is 894.74 ± 0.15 kg/m3.

Question: What about the mass density ([3]; 303.15 K, x2 = 0.7961) of the same compound?
Answer: Its mass density is 919.47 ± 0.13 kg/m3.

Question: What about the mass density ([3]; 303.15 K, x2 = 0.8788) of the same compound?
Answer: The mass density was 950.35 ± 0.1 kg/m3.

Question: What about the mass density ([3]; 303.15 K, x2 = 0.9573) of the same compound?
Answer: The mass density was 980.43 ± 0.08 kg/m3.

Question: What about the mass density ([3]; 313.15 K, x2 = 0) of the same compound?
Answer: Its mass density is 760.2 ± 0.3 kg/m3.

Question: What about the mass density ([3]; 313.15 K, x2 = 0.0417) of the same compound?
Answer: The mass density was 763.85 ± 0.25 kg/m3.

Question: What about the mass density ([3]; 313.15 K, x2 = 0.0833) of the same compound?
Answer: Its mass density is 767.91 ± 0.25 kg/m3.

Question: And the mass density ([3]; 313.15 K, x2 = 0.1568)?
Answer: The mass density was 776.09 ± 0.24 kg/m3.

Question: And the mass density ([3]; 313.15 K, x2 = 0.2095)?
Answer: Its mass density is 782.6 ± 0.2 kg/m3.

Question: What about the mass density ([3]; 313.15 K, x2 = 0.3247) of the same compound?
Answer: The mass density was 799.11 ± 0.22 kg/m3.

Question: And the mass density ([3]; 313.15 K, x2 = 0.4127)?
Answer: Its mass density is 814.05 ± 0.21 kg/m3.

Question: What about the mass density ([3]; 313.15 K, x2 = 0.496) of the same compound?
Answer: Its mass density is 830.25 ± 0.2 kg/m3.

Question: What about the mass density ([3]; 313.15 K, x2 = 0.5704) of the same compound?
Answer: The mass density was 846.08 ± 0.19 kg/m3.

Question: What about the mass density ([3]; 313.15 K, x2 = 0.6361) of the same compound?
Answer: Its mass density is 862.22 ± 0.17 kg/m3.

Question: What about the mass density ([3]; 313.15 K, x2 = 0.7201) of the same compound?
Answer: The mass density was 886.22 ± 0.15 kg/m3.

Question: What about the mass density ([3]; 313.15 K, x2 = 0.7961) of the same compound?
Answer: Its mass density is 911.61 ± 0.13 kg/m3.

Question: What about the mass density ([3]; 313.15 K, x2 = 0.8788) of the same compound?
Answer: The mass density was 943.52 ± 0.11 kg/m3.

Question: And the mass density ([3]; 313.15 K, x2 = 0.9573)?
Answer: The mass density was 975.45 ± 0.08 kg/m3.

Question: And the mass density ([3]; 323.15 K, x2 = 0)?
Answer: Its mass density is 749.12 ± 0.26 kg/m3.

Question: And the mass density ([3]; 323.15 K, x2 = 0.0417)?
Answer: Its mass density is 752.77 ± 0.26 kg/m3.

Question: And the mass density ([3]; 323.15 K, x2 = 0.0833)?
Answer: The mass density was 756.84 ± 0.26 kg/m3.

Question: And the mass density ([3]; 323.15 K, x2 = 0.1568)?
Answer: The mass density was 765.06 ± 0.25 kg/m3.

Question: What about the mass density ([3]; 323.15 K, x2 = 0.2095) of the same compound?
Answer: The mass density was 771.62 ± 0.25 kg/m3.

Question: What about the mass density ([3]; 323.15 K, x2 = 0.3247) of the same compound?
Answer: The mass density was 788.38 ± 0.23 kg/m3.

Question: And the mass density ([3]; 323.15 K, x2 = 0.4127)?
Answer: Its mass density is 803.6 ± 0.2 kg/m3.

Question: What about the mass density ([3]; 323.15 K, x2 = 0.496) of the same compound?
Answer: The mass density was 820.14 ± 0.21 kg/m3.

Question: And the mass density ([3]; 323.15 K, x2 = 0.5704)?
Answer: The mass density was 836.32 ± 0.19 kg/m3.

Question: What about the mass density ([3]; 323.15 K, x2 = 0.6361) of the same compound?
Answer: Its mass density is 852.82 ± 0.18 kg/m3.

Question: And the mass density ([3]; 323.15 K, x2 = 0.7201)?
Answer: The mass density was 877.38 ± 0.16 kg/m3.

Question: What about the mass density ([3]; 323.15 K, x2 = 0.7961) of the same compound?
Answer: Its mass density is 903.39 ± 0.14 kg/m3.

Question: What about the mass density ([3]; 323.15 K, x2 = 0.8788) of the same compound?
Answer: The mass density was 936.28 ± 0.12 kg/m3.

Question: And the mass density ([3]; 323.15 K, x2 = 0.9573)?
Answer: Its mass density is 969.87 ± 0.09 kg/m3.

Question: And the mass density ([3]; 333.15 K, x2 = 0)?
Answer: Its mass density is 737.87 ± 0.27 kg/m3.

Question: And the mass density ([3]; 333.15 K, x2 = 0.0417)?
Answer: The mass density was 741.52 ± 0.27 kg/m3.

Question: And the mass density ([3]; 333.15 K, x2 = 0.0833)?
Answer: Its mass density is 745.6 ± 0.3 kg/m3.

Question: What about the mass density ([3]; 333.15 K, x2 = 0.1568) of the same compound?
Answer: The mass density was 753.85 ± 0.26 kg/m3.

Question: And the mass density ([3]; 333.15 K, x2 = 0.2095)?
Answer: Its mass density is 760.47 ± 0.25 kg/m3.

Question: And the mass density ([3]; 333.15 K, x2 = 0.3247)?
Answer: Its mass density is 777.43 ± 0.24 kg/m3.

Question: What about the mass density ([3]; 333.15 K, x2 = 0.4127) of the same compound?
Answer: The mass density was 792.91 ± 0.23 kg/m3.

Question: And the mass density ([3]; 333.15 K, x2 = 0.496)?
Answer: The mass density was 809.77 ± 0.21 kg/m3.

Question: And the mass density ([3]; 333.15 K, x2 = 0.5704)?
Answer: Its mass density is 826.29 ± 0.2 kg/m3.

Question: And the mass density ([3]; 333.15 K, x2 = 0.6361)?
Answer: Its mass density is 843.13 ± 0.19 kg/m3.

Question: What about the mass density ([3]; 333.15 K, x2 = 0.7201) of the same compound?
Answer: The mass density was 868.22 ± 0.17 kg/m3.

Question: What about the mass density ([3]; 333.15 K, x2 = 0.7961) of the same compound?
Answer: Its mass density is 894.84 ± 0.15 kg/m3.

Question: And the mass density ([3]; 333.15 K, x2 = 0.8788)?
Answer: The mass density was 928.67 ± 0.12 kg/m3.

Question: And the mass density ([3]; 333.15 K, x2 = 0.9573)?
Answer: The mass density was 963.64 ± 0.09 kg/m3.

Question: Which refractive index [1] does the source give for `C[S+](C)[O-]` [dimethyl sulfoxide] here?
Answer: The refractive index was 1.4767 ± 0.0008.

Question: And the mass density ([2]; 293.15 K)?
Answer: Its mass density is 1100.41 ± 0.34 kg/m3.

Question: What about the mass density ([2]; 303.15 K) of the same compound?
Answer: Its mass density is 1090.37 ± 0.32 kg/m3.

Question: What about the mass density ([2]; 313.15 K) of the same compound?
Answer: Its mass density is 1080.34 ± 0.31 kg/m3.

Question: What about the mass density ([2]; 323.15 K) of the same compound?
Answer: The mass density was 1070.3 ± 0.29 kg/m3.

Question: And the mass density ([2]; 333.15 K)?
Answer: The mass density was 1060.27 ± 0.27 kg/m3.
